The values that follow come from article PMC7708037, “Targeting OGG1 arrests cancer cell proliferation by inducing replication stress” (Nucleic Acids Research, 2020).

Molecules are shown by their SMILES.

One assay has as its system A3 cells. As to the kind of experiment: A3 cell numbers and viability. It is filed as cell-based, human. As for the experimental part: Figure 4. Anticancer properties overlap between OGG1 loss and OGG1 inhibitors. (A) Viability of T-cell acute […] leukemia cell lines treated for 5 days with the indicated doses TH5487. Data are average ±SD of independent experiments (A3, n = 5; Jurkat, n = 3; MOLT-4, n = 4; CCRF-CEM, n = 3). (B) Relative cell numbers and (C) viability (%) for A3 cells treated for 5 days with 10 μM TH5487. Data are average ±SD of six replicates from three independent experiments. (D) Induction of apoptosis in A3 cells treated for 72 h TH5487 and stained for Annexin V. Data are average ±SD of three independent experiments. (E) A3 cells transfected with shRNA targeting OGG1 were treated with doxycycline for 6 days and stained for Annexin V. Data are average ±SD of two independent experiments. (F) Scheme for recovery experiment in which A3 OGG1-shRNA cells or A3 cells were silenced or inhibited for 6 days with doxycycline (200 nM) or TH5487 (10 μM). […] Data are average ±SD of 2–6 technical replicates representative of two independent experiments (I). Scheme for off-target effect evaluation in which A3 OGG1-shRNA cells were exposed to doxycycline for six days and after that, cells were exposed to TH5487 (10 μM) for 48 h followed by measurements of cell numbers (J) and viability by trypan blue exclusion (K). Data are average ±SD of two technical replicates from four independent experiments. Statistical significance was determined using unpaired, two-sided t-tests (*P < 0.05, **P < 0.01, ***P < 0.001, ****P < 0.0001, ns, non-significant).

The next assay concerns γH2AX in A3 cells. Briefly: Phosphorylated γH2AX (immunofluorescence / flow cytometry). The assay is classed as cell-based, human. Conditions: 10 μM. Here is the method:
A3 cells were seeded in a 96-well plate 24 h prior to start of the experiment. Cells were then treated with 10 μM TH5487, for 24, 48 and 72 h, respectively or with 2 mM hydroxyurea for 1 h. Final DMSO concentration was 0.2%. After the treatment, cells were transferred to an imaging plate (black Falcon 96-well plate) pre-coated with 0.1% poly L-lysine (Sigma). Cells were allowed to attach for 15 minutes and were then fixed with 4% paraformaldehyde. The plate was washed with 0.05% Tween 20 in PBS, cells were permeabilized with 0.5% Triton-X100 in PBS and blocked with 2% bovine serum albumin in PBS. […] Data from three independent experiments were pooled and analyzed for statistical significance by one-way analysis of variance.
At the indicated time points, compound/dox treated cells were incubated in medium containing 10 μM 5-ethynyl-2′-deoxyuridine (EdU) (Thermo Fisher, A10044) for 20 min. […] Data was analyzed using Kaluza® Flow Analysis Software (Beckman Coulter).
Figure 5. […] A3 cells were treated with 20 mM KBrO3 for 1 h or with 10 μM TH5487 for the indicated times, and the amount of genomic 8-oxodG was quantified with LC-MS/MS. […] A3 cells were treated with 10 μM TH5487 for 72 h and strand-breaks and OGG1 substrate lesions were analyzed with the OGG1-modified Comet assay. […] At least 33 000 nuclei per group were quantified from three independent experiments. […]

For `O=C(Nc1ccc(I)cc1)N1CCC(n2c(=O)[nH]c3c(Br)cccc32)CC1` [TH5487], the “Recovery of proliferation after release into fresh medium” value in the assay with A3 cells (A3 cells exposed for 6 days to 10 μM) is reported as “able to divide normally”. Also, the Cell viability result with A3 cells (A3 cells, 10 μM, after 72 h) is “mild decrease in cell viability”. Moreover, the “Proliferation (relative cell numbers)” value with A3 cells (A3 cells, 10 μM, up to 72 h) was “slower proliferation”. Also, the “Cell cycle distribution of γH2AX positive cells” value in the assay on γH2AX in A3 cells (72 h) is on record as “confined to S-phase cells”. In addition, the “Phosphorylated γH2AX” value in the assay on γH2AX in A3 cells (after 24 h) was “significant increase”.
